ChEMBL document CHEMBL1148675, “Protein microarrays to study carbohydrate-recognition events” (Bioorg Med Chem Lett, 2006)
The source made the active and inactive calls. No cut-off for these calls is given here.

Columns and labels:
Homo sapiens [1] = species: Homo sapiens; test: Binding affinity to pepsin by microarray at 0.5 uM
Trypsin (Homo sapiens) = Trypsin (Homo sapiens) (UniProt P07477+P07478+P35030); test: Binding affinity to trypsin by microarray at 0.5 uM; format: protein assay
[2] = target: Prothrombin (Homo sapiens) (UniProt P00734); test: Binding affinity to thrombin by microarray at 0.5 uM
Homo sapiens [3] = species: Homo sapiens; test: Binding affinity to amylase by microarray at 0.5 uM
Homo sapiens [4] = species: Homo sapiens; test: Binding affinity to hyaluronidase by microarray at 0.5 uM
Homo sapiens [5] = species: Homo sapiens; test: Binding affinity to myokinase by microarray at 0.5 uM
[6] = target: Antithrombin-III (Homo sapiens) (UniProt P01008); test: Binding affinity to antithrombin by microarray at 0.5 uM
Homo sapiens [7] = species: Homo sapiens; test: Binding affinity to GST by microarray at 0.5 uM
Insulin (Homo sapiens) = Insulin (Homo sapiens) (UniProt P01308); test: Binding affinity to insulin by microarray at 0.5 uM
[8] = target: T1, Ovalbumin (Gallus gallus) (UniProt P01012); test: Binding affinity to ovalbumin by microarray at 0.5 uM
T1 sequence (whole entry): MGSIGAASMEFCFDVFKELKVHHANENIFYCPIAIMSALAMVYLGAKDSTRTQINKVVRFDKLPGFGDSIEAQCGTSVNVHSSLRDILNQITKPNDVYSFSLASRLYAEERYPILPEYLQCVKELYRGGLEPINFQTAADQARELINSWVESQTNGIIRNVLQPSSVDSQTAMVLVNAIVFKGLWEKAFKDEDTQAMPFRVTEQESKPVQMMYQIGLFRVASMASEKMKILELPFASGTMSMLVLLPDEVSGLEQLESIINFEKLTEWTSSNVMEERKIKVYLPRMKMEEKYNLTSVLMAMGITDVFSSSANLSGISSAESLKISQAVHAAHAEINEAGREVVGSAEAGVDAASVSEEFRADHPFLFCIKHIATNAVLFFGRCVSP

Aleuria aurantia = test: Binding affinity to Aleuria Aurantia lectin by microarray at 0.5 uM
Canavalia = test: Binding affinity to Concanavalin A by microarray at 0.5 uM
[9] = target: Streptavidin (Streptomyces avidinii) (UniProt P22629); test: Binding affinity to streptavidin by microarray
Homo sapiens [10] = species: Homo sapiens; test: Binding affinity to collagenase by microarray at 0.5 uM
Sambucus nigra = test: Binding affinity to Sambucus nigra A lectin by microarray at 0.5 uM
Triticum aestivum = test: Binding affinity to wheat germ agglutinin by microarray at 0.5 uM
Homo sapiens [11] = species: Homo sapiens; test: Binding affinity to alkaline phosphatase by microarray at 0.5 uM
Homo sapiens [12] = species: Homo sapiens; test: Binding affinity to RNase A by microarray at 0.5 uM
[13] = Inhibition of trivalent GlcNAc binding to wheat germ agglutinin with irradiation by microarray; parameters: species or system Triticum aestivum
[14] = Inhibition of trivalent GlcNAc binding to wheat germ agglutinin without irradiation by microarray; parameters: species or system Triticum aestivum
Ricinus communis = test: Binding affinity to Ricinus communis agglutinin 120 by microarray at 0.5 uM

Sequence of Streptavidin (Streptomyces avidinii) (P22629 whole entry): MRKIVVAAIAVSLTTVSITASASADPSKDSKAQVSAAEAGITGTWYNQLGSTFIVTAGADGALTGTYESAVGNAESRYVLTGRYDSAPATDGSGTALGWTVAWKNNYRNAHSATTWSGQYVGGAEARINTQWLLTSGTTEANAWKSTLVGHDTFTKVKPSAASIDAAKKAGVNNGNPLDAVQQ
Sequence of Antithrombin-III (Homo sapiens) (P01008 whole entry): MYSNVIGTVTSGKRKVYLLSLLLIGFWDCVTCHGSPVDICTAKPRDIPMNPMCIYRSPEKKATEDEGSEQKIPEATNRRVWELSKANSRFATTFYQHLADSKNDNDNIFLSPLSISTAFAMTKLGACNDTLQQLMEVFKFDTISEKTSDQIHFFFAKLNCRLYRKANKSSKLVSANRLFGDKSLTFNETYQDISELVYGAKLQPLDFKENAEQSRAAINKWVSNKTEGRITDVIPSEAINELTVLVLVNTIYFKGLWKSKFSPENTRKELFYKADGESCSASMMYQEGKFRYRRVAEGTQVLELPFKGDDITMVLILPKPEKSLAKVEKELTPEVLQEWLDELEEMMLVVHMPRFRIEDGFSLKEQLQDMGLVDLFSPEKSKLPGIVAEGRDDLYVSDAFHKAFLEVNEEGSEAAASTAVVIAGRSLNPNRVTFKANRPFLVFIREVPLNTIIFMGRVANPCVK
Sequence of Insulin (Homo sapiens) (P01308 whole entry): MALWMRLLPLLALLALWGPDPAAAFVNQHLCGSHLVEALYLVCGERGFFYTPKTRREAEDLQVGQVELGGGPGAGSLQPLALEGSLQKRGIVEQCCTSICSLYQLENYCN

Q: What does the source list for `CC(=O)N[C@H]1[C@H](OCCNC(=O)CCC(=O)NCCCC[C@H](NC(=O)CCC(=O)NCCO[C@@H]2O[C@H](CO)[C@@H](O)[C@H](O)[C@H]2NC(C)=O)C(=O)N[C@@H](CCCCNC(=O)[C@H](COCc2ccc(C(=O)c3ccccc3)cc2)NC(=O)CCC(=O)NCCO[C@@H]2O[C@H](CO)[C@@H](O)[C@H](O)[C@H]2NC(C)=O)C(=O)NCCCOCCOCCOCCCNC(=O)CCC(=O)NCCOCCOCCNC(=O)CCCCN2CCC(C)(C)/C2=C\C=C\C2=[N+](C)c3ccccc3C2(C)C)O[C@H](CO)[C@@H](O)[C@@H]1O`?
A: Activity (Homo sapiens [1]): inactive; Activity (Trypsin (Homo sapiens)): inactive; Activity [2]: inactive; Activity (Homo sapiens [3]): inactive; Activity (Homo sapiens [4]): inactive; Activity (Homo sapiens [5]): inactive; Activity [6]: inactive; Activity (Homo sapiens [7]): inactive; Activity (Insulin (Homo sapiens)): inactive; Activity [8]: inactive; Activity (Aleuria aurantia): inactive; Activity (Canavalia): inactive; Activity [9]: inactive; Activity (Homo sapiens [10]): inactive; Activity (Sambucus nigra): inactive; Activity (Triticum aestivum): Active; Activity (Homo sapiens [11]): inactive; Activity (Homo sapiens [12]): inactive; IC50 [13]: 17 mM; IC50 [14]: 7.9 mM

Q: With `CC(=O)N[C@H]1[C@@H](OCCNC(=O)CCC(=O)NCCCC[C@H](NC(=O)CCC(=O)NCCO[C@H]2O[C@H](CO)[C@@H](O[C@@H]3O[C@H](CO)[C@H](O)[C@H](O)[C@H]3O)[C@H](O)[C@H]2NC(C)=O)C(=O)N[C@@H](CCCCNC(=O)[C@H](COCc2ccc(C(=O)c3ccccc3)cc2)NC(=O)CCC(=O)NCCO[C@H]2O[C@H](CO)[C@@H](O[C@@H]3O[C@H](CO)[C@H](O)[C@H](O)[C@H]3O)[C@H](O)[C@H]2NC(C)=O)C(=O)NCCCOCCOCCOCCCNC(=O)CCC(=O)NCCOCCOCCNC(=O)CCCCN2CCC(C)(C)/C2=C\C=C\C2=[N+](C)c3ccccc3C2(C)C)O[C@H](CO)[C@@H](O[C@@H]2O[C@H](CO)[C@H](O)[C@H](O)[C@H]2O)[C@@H]1O` as the compound, how does the Activity (Homo sapiens [1]) read?
A: inactive

Q: And the Activity (Trypsin (Homo sapiens))?
A: inactive

Q: What about the Activity [2] of the same compound?
A: inactive

Q: And the Activity (Homo sapiens [3])?
A: inactive

Q: What about the Activity (Homo sapiens [4]) of the same compound?
A: inactive

Q: And the Activity (Homo sapiens [5])?
A: inactive

Q: And the Activity [6]?
A: inactive

Q: What about the Activity (Homo sapiens [7]) of the same compound?
A: inactive

Q: What about the Activity (Insulin (Homo sapiens)) of the same compound?
A: inactive

Q: And the Activity [8]?
A: inactive

Q: And the Activity (Aleuria aurantia)?
A: inactive

Q: And the Activity (Canavalia)?
A: inactive

Q: What about the Activity [9] of the same compound?
A: inactive

Q: And the Activity (Homo sapiens [10])?
A: inactive

Q: And the Activity (Sambucus nigra)?
A: inactive

Q: And the Activity (Triticum aestivum)?
A: Active

Q: And the Activity (Homo sapiens [11])?
A: inactive

Q: What about the Activity (Homo sapiens [12]) of the same compound?
A: inactive

Q: And the Activity (Ricinus communis)?
A: Active

Q: Which Activity (Homo sapiens [1]) does the source give for `C[C@H]1O[C@H](OCCNC(=O)CCC(=O)NCCCC[C@H](NC(=O)CCC(=O)NCCO[C@H]2O[C@H](C)[C@H](O)[C@H](O)[C@H]2O)C(=O)N[C@@H](CCCCNC(=O)[C@H](COCc2ccc(C(=O)c3ccccc3)cc2)NC(=O)CCC(=O)NCCO[C@H]2O[C@H](C)[C@H](O)[C@H](O)[C@H]2O)C(=O)NCCCOCCOCCOCCCNC(=O)CCC(=O)NCCOCCOCCNC(=O)CCCCN2CCC(C)(C)/C2=C\C=C\C2=[N+](C)c3ccccc3C2(C)C)[C@H](O)[C@@H](O)[C@H]1O` here?
A: inactive

Q: What about the Activity (Trypsin (Homo sapiens)) of the same compound?
A: inactive

Q: And the Activity [2]?
A: inactive

Q: And the Activity (Homo sapiens [3])?
A: inactive

Q: What about the Activity (Homo sapiens [4]) of the same compound?
A: inactive

Q: What about the Activity (Homo sapiens [5]) of the same compound?
A: inactive

Q: What about the Activity [6] of the same compound?
A: inactive

Q: And the Activity (Homo sapiens [7])?
A: inactive

Q: What about the Activity (Insulin (Homo sapiens)) of the same compound?
A: inactive

Q: What about the Activity [8] of the same compound?
A: inactive

Q: And the Activity (Aleuria aurantia)?
A: Active

Q: What about the Activity (Canavalia) of the same compound?
A: inactive

Q: And the Activity [9]?
A: inactive

Q: What about the Activity (Homo sapiens [10]) of the same compound?
A: inactive

Q: What about the Activity (Sambucus nigra) of the same compound?
A: inactive

Q: What about the Activity (Triticum aestivum) of the same compound?
A: inactive

Q: What about the Activity (Homo sapiens [11]) of the same compound?
A: inactive

Q: What about the Activity (Homo sapiens [12]) of the same compound?
A: inactive
